{"source": "patent US20030049698A1", "about": "“Diagnosis and treatment of gastrointestinal disease” (priority 2002, published 2003)", "key": {"CCK-B/gastrin receptor": {"target": "T1, CCK-B/gastrin receptor (Rattus norvegicus, UniProt P30553)", "T1 sequence (P30553 1-452)": "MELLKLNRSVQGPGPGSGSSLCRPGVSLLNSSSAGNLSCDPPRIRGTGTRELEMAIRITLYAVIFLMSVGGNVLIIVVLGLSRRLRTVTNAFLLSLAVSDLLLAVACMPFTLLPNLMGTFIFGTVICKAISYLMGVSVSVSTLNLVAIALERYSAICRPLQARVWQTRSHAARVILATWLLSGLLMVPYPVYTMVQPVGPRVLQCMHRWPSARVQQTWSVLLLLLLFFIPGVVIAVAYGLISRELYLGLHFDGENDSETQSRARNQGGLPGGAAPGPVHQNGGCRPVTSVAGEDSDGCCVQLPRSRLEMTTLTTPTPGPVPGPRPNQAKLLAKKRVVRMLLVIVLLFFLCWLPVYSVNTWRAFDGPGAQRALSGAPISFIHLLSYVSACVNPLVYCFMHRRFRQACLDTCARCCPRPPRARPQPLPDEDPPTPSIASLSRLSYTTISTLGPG", "conditions": "reportedly; cited from earlier work"}, "gastrin deficient mice [1]": {"system": "gastrin deficient mice", "assay": "Gastric acid secretion, pyloric ligation, after infusion in gastrin deficient mice", "type": "in vivo", "conditions": "10 nmol/kg/hr, 4 hours pyloric ligation, saline 5.4±2.0 nEq", "procedure": "Animals were operated and sacrificed under anesthesia with Metofane.\n(§1) The mice were fasted 24 hours prior to sacrifice.\nAfter food deprivation for 24 hours, the mice were anesthetized with avertin, the abdominal cavity was incised, and each stomach was rinsed with 1 ml saline through a canula placed in the pylorus. The pylorus was then ligated and the gastric juice was collected 4 hours later (61). The acidity of the gastric contents was measured by titration with 0.02 N NaOH and expressed as H^+ nEq."}, "gastrin deficient mice [2]": {"system": "gastrin deficient mice", "assay": "Gastric fundic mucosa proliferation by BrdU incorporation", "type": "in vivo", "conditions": "infusion 10 nmol/kg/hr; G-17 effect at one day; versus saline or G-17 alone", "procedure": "as §1\nImmunohistochemical detection of BrdU incorporation was performed using the avidin-biotin monoclonal antibody technique as previously described (51). Ten well oriented oxyntic glands or colonic crypts were counted per slide. Of the ten colonic crypts, 4 were obtained from the rectum, 3 from the descending colon, and 3 from the ascending colon. The BrdU labeling index was calculated by counting the number of BrdU-positive cells per gland/crypt and expressing the result as a percentage of the total number of cells per gland/crypt."}, "H+/K+-ATPase": {"system": "H+/K+-ATPase", "assay": "H+/K+-ATPase expression by immunohistochemical analysis", "type": "in vivo, mice", "conditions": "compared to infusion of saline alone", "procedure": "as §1\n(§2) At the time of sacrifice, the stomach was divided into thirds longitudinally. One section was fixed in Carnoy's fixative overnight, and then embedded in paraffin. Routine H&E staining was performed. Parietal cells were stained using an antibody to the β subunit of H+/K+-ATPase MA3-923 (Affinity Bioreagents, Golden, Colo.) at a final dilution of 1:100, as previously described (62). Ten well oriented fundic glands were examined for parietal cell number, with the result expressed as number of parietal cells per gland (51)."}, "gastrin deficient mice [3]": {"system": "gastrin deficient mice", "assay": "Parietal cell and ECL cell counts by immunohistochemistry", "type": "in vivo", "procedure": "as §1, §2\nSmall tissue specimens (2×4 mm) were taken from the greater curvature of the oxyntic mucosa. They were fixed either in 4% 1-Ethyl-3(3-dimethylaminopropyl)-carbodiimide hydrochloride (Sigma, St. Louis, Mo.) for histamine staining, or in 4% paraformaldehyde for VMAT-2 staining, for 8-12 h at 4° C., then rinsed with 20% sucrose in 0.1 M phosphate-buffered saline (pH 7.4). Fresh frozen tissue sections were cut in a cryostat (Bright, Huntington, England) at 10 μm thickness. The sections were thawed onto gelatin-coated glass slides. After washing twice for 10 min with phosphate-buffered saline (pH 7.4), containing 0.25% Triton X-100 (PBS-T), the sections were incubated with either histamine antibody 8431 rabbit (Eurodiagnostic, Mahnö, Sweden) at a final dilution of 1:200 or VMAT-2 antibody B-GP 280-1 (Alpha Diagnostic Int., San Antonio, Tex.) at a dilution of 1:2000 overnight at 4° C. After washing twice with PBS-T (10 min each time), the sections were incubated for 1 h at room temperature with FITC-conjugated goat anti-rabbit IgG (Dako, Glostrup, Denmark) for histamine at a 1:40 dilution or donkey anti-guinea pig IgG (Jacksson InmunoResearch, Göteborg, Sweden) for VMAT-2 at a 1:100 dilution. […] The number of immunostained cells were counted and exressed as number per gland of mucosa.\nParietal and ECL cells were stained immunohistochemically as above. At least ten well oriented glands were then assessed for the number of positively stained cells per gland."}, "gastrin deficient mice [4]": {"system": "gastrin deficient mice", "assay": "Electron microscopy of parietal cells (activation, vacuolar canaliculi, lipofuscin bodies)", "type": "in vivo", "procedure": "as §1\nSmall tissue specimens (<1 mm^3) were taken from the oxyntic gland area and immediately immersed in a mixture of […] 1% glutaraldehyde, 3% formaldehyde, 0.075M sodium phoshpate buffer, pH 7.2, for 6 hours. The specimens were post-fixed in 1% osmium tetroxide for 1 hour, dehydrated in graded acetone solutions and embedded in Epon 812. Ultrathin sections (60-80 nm) were cut on a LKB MK III Ultratome, contrasted with uranyl acetate and lead citrate and examined in a Philips CM10 (Philips,) transmission electron microscope (63). Parietal cells were identified by the presence of secretory canuliculi and/or tubulovesicles, and ECL cells were identified by the presence of characteristic granules and vesicles in the cytoplasm. Point counting methods were used to analyze the voulume density of the various organelles as previously described (64,65). The cells were photographed (nucleated profiles only) at 6,000× magnification; the prints were then enlarged to 20,000× for planimetric analysis. Activated parietal cells were defined as cells having secretory canuliculi in their cytoplasm. The percentage of activated parietal cells was determined by analyzing the electron micrographs of 100 parietal cells per group. Vacuolar canaliculi were defined as canuliculi containing lysosomal bodies and/or vacuoles in their lumen. Lipofuscin bodies were identified by their high electron density (osmiophilia) in the cytoplasm."}}}
{"molecule": "Cc1cccc(NC(=O)N[C@@H]2N=C(c3ccccc3)c3ccccc3N(CC(=O)c3ccccc3C)C2=O)c1", "note": "[YM022]", "values": [{"measurement": "potency relative to YF476", "setting": "CCK-B/gastrin receptor", "result": "about 5 times"}]}
{"molecule": "gastrin-17 [G-17]", "values": [{"measurement": "acid output", "setting": "gastrin deficient mice [1]; after 14 days of infusion", "result": "12.0±2.2", "unit": "nEq"}, {"measurement": "acid output", "setting": "gastrin deficient mice [1]; after one day of infusion", "result": "21.8±8.8", "unit": "nEq"}, {"measurement": "acid output", "setting": "gastrin deficient mice [1]; after six days of infusion", "result": "37.4±9.4", "unit": "nEq"}, {"measurement": "proliferation rate of the gastric fundic mucosa (BrdU incorporation)", "setting": "gastrin deficient mice [2]", "result": "significantly increased proliferation rate"}, {"measurement": "effect on H+/K+-ATPase expression (intensity of immunostaining)", "setting": "H+/K+-ATPase", "result": "no effect on H+/K+-ATPase expression"}, {"measurement": "effect on ECL cell number (histamine or VMAT-2 staining)", "setting": "gastrin deficient mice [3]; any time point examined", "result": "neither G-17, G17-Gly, or the combination influenced ECL cell number"}, {"measurement": "increase in the number of parietal cells compared to saline", "setting": "gastrin deficient mice [3]; by day 14 of infusion", "result": 65, "unit": "%"}, {"measurement": "effect on parietal cell number (in words)", "setting": "gastrin deficient mice [3]; versus saline, or combination versus G-17 alone", "result": "significant increase in parietal cell number"}, {"measurement": "lipofuscin bodies, percentage of cell volume", "setting": "gastrin deficient mice [4]; 14 day infusion, saline 0.26±0.10%", "result": "1.88±0.27", "unit": "%"}, {"measurement": "vacuolar canaliculi, percentage of cell volume", "setting": "gastrin deficient mice [4]; 14 day infusion, saline 0.38±0.38%", "result": "7.50±2.40", "unit": "%"}, {"measurement": "activated parietal cells", "setting": "gastrin deficient mice [4]; after 14 days of infusion, saline 27%", "result": 27, "unit": "%"}]}
